In patent publication US6888014B2, “Dammarane sapogenins, their use as anti-cancer agents, and a process for producing same” (PanaGin Pharmaceuticals Inc., priority 2001, dated 2005):

Legend:
[1] = test system: Human non-small-cell lung carcinoma H460 cells; assay: Cancer cell inhibition in vitro, crystal violet staining, cell viability; format: cell-based; settings: for V(%) cancer cell viability / Absorbency of Stained Cells (M ± SD) / viability at 40 µg/mL / viability at 25 µg/mL: H460 cells, 24 hours; for Absorbency of Stained Cells (M ± SD): 590 nm; for inhibitory effect on proliferation of H460 cells (in words): P<0.01 compared with control; for viability at 40 µg/mL / viability at 25 µg/mL: Homo sapiens, NCI-H460, read-out: V(%) cancer cell viability; for inhibitory effect on proliferation of H460 cells compared with Rh2 (in words): P<0.05 compared with that of Rh2
Method: Composition: 20(S)-Rh2 was provided by Shenyang Pegasus Pharmaceutical R&D Co., China, with a purity of over 98%. The molecular weight for Rh2 was 622.3. Sapogenins PAM-120, PBM-100 and PAN-30 were derived from the process stated in Example 1. The molecular weights of PAM-120, PBM-100 and PAN-30 were respectively 442.7, 474.7 and 766.6, and the purity for each of the three agents was higher than 99%. Rh2, PAM-120, PBM-100 and PAN-30 were dissolved 1 gram each separately in 100 ml absolute ethanol and stored at 4° C. the agents were diluted with RPMI-1640 medium to the desired concentrations as shown in Table 1.
Cells: Human non-small-cell lung carcinoma H460 cells were incubated in RPMI-1640 medium added with 10% fetal calf serum, 100 units penicillin/ml, and 100 μg streptomycin/ml in 5% CO2 at 37° C.
In vitro treatment: H460 cells were seeded in 96-well flat-bottomed microtest-plates at 1.2×10^3 cells per well, six wells in each group, incubated in humidified 5% CO2 at 37° C. for 24 hours with or without the agents according to the schedule as shown below.
After the 24 hours of incubation, an equal volume of 10% formalin phosphate-buffered saline containing 0.2% crystal violet was added to each well and left at room temperature for 20 minutes. The plates were then washed twice with distilled water and dried at room temperature. The absorbency of the stained cells at 590 nm was then measured using an automatic microtest-plate reader. Average absorbency of the control wells (Ac) without any treatment was calculated, average absorbency of each treatment group (ATi) was determined, and then the average cell viability of each treatment group (Vi) was derived using the following formula: [formula] B. Result

[2] = test system: human malignant glioma cells (U87); assay: Mouse subcutaneous human malignant glioma (U87) model (FIG. 6); format: in vivo, Nude mice; settings: 25 mg/ml; for tumor growth compared with PBS control animals (in words): treatment from day 7, tumor sizes measured day 7 and day 24
Method: FIG. 6 illustrates a graph of the therapeutic effect of PAM-120 on mouse subcutaneous human malignant glioma (U87) model. Nude mice were subcutaneously implanted with human malignant glioma cells (U87). On day 7 post tumor implantation, animals were treated with 25 mg/ml PAM-120 or equal dose of Rh2. Tumor sizes were measured on day 7 (before treatment) and day 24 (after the treatment).

[3] = test system: Murine sarcoma 180 cells; assay: Cancer bearing mice life prolongation test; format: in vivo, C57BL/6J mice; settings: for DS50 (days of survival for 50% animals) / LPR(%) life prolongation rate: oral, lifetime or up to 120 days
Description: Fifty (50) C57BL/6J mice weighing 18-22 g, without sex discrimination, were randomly assigned to one control group and four treatment groups, each with 10 animals. Murine sarcoma 180 cells were intraperitoneally transplanted to the mice. 20(S)-Rh2 was provided by Shenyang Pegasus Pharmaceutical R&D Co., China, with a purity of over 98%. The molecular weight for Rh2 was 622.3. The novel sapogenin PAM-120 was derived from the process described in Example 2 according to this invention. The molecular weight of PAM-120 was 442.7, and the purity for PAM-120 was higher than 99%. The drugs were prepared into a suspension form respectively. The mice were weighed daily prior to drug administration to determine the actual measurement of drug administered. Drug administration started from 24 hours post tumor inoculation. The mice in the two low-dose treatment groups were orally given the Rh2 and PAM-120 preparations using a gastric catheter at a daily dose of 10 mg/kg of Rh2 and 10 mg/kg of PAM-120 respectively for a lifetime or up to 120 days. The mice in the two high-dose treatment groups were orally given the Rh2 and PAM-120 preparations using a gastric catheter at a daily dose of 25 mg/kg of Rh2 and 25 mg/kg of PAM-120 respectively for a lifetime or up to 120 days. The mice in the control group were orally given a normal saline. For each group, the days of survival for 50% animals (DS50) and the average days of survival (ADS) were recorded. For groups containing one or more animals that could have lived longer than 120 days (the designed sacrifice day was d 120), the ADS would be so calculated that these animals were counted as if they had died on day 120, and a note would be made. The life prolongation rate (LPR) was calculated with the following formula: [formula] B. Result

[4] = test system: human malignant glioma cells (U87); assay: Mouse intracranial human malignant glioma (U87) model (FIG. 5); format: in vivo, Nude mice; settings: 25 mg/kg and 50 mg/kg, treatment from day 10 post implantation, p<0.01 Kaplan Meier
Method: FIG. 5 illustrates a graph of the therapeutic effect of PAM-120 on mouse intracranial human malignant glioma (U87) model. Nude mice were intracranially implanted with human malignant glioma cells (U87). On day 10 post tumor implantation, animals were treated with various dosages of PAM-120.

3-O-[β-D-glucopyranosyl(1→2)-β-D-glucopyranosyl]-dammara-20(22E)-diene-3,12-diol [PAN-30]
V(%) cancer cell viability ([1]; high-dose 40 μg/ml): 41.49%
Absorbency of Stained Cells (M ± SD) ([1]; high-dose 40 μg/ml): .147 ± .032
V(%) cancer cell viability ([1]; low-dose 25 μg/ml): 70.30%
Absorbency of Stained Cells (M ± SD) ([1]; low-dose 25 μg/ml): .249 ± .045
inhibitory effect on proliferation of H460 cells (in words) [1]: significant inhibitory effect

C=C(C)[C@H](O)C/C=C(\C)C1CC[C@]2(C)C1[C@H](O)CC1[C@@]3(C)CC[C@H](O)C(C)(C)C3[C@@H](O)C[C@]12C (stereo partly drawn) [PBM-100]
Absorbency of Stained Cells (M ± SD) ([1]; high-dose 40 μg/ml): .130 ± .019
Absorbency of Stained Cells (M ± SD) ([1]; low-dose 25 μg/ml): .223 ± .040
viability at 40 µg/mL ([1]; high-dose 40 μg/ml): 36.5%
viability at 25 µg/mL ([1]; low-dose 25 μg/ml): 62.7%
inhibitory effect on proliferation of H460 cells (in words) [1]: significant inhibitory effect
inhibitory effect on proliferation of H460 cells compared with Rh2 (in words) [1]: notable increase in inhibitory effect

CC(C)=CCC[C@](C)(O)[C@H]1CC[C@]2(C)[C@@H]1[C@H](O)C[C@@H]1[C@@]3(C)CC[C@H](O[C@@H]4O[C@H](CO)[C@@H](O)[C@H](O)[C@H]4O)C(C)(C)[C@@H]3CC[C@]12C [Rh2, 3-O-β-D-glucopyranosyl-20(s)-protopanaxadiol, reference compound]
tumor growth compared with PBS control animals (in words) [2]: significantly inhibited tumor growth
V(%) cancer cell viability ([1]; high-dose 40 μg/ml): 50.99%
Absorbency of Stained Cells (M ± SD) ([1]; high-dose 40 μg/ml): .181 ± .049
V(%) cancer cell viability ([1]; low-dose 25 μg/ml): 78.49%
Absorbency of Stained Cells (M ± SD) ([1]; low-dose 25 μg/ml): .278 ± .030
DS50 (days of survival for 50% animals) ([3]; 10 mg/kg daily): 22 days
LPR(%) life prolongation rate ([3]; 10 mg/kg daily): 68.0%
DS50 (days of survival for 50% animals) ([3]; 25 mg/kg daily): 41 days
LPR(%) life prolongation rate ([3]; 25 mg/kg daily): 201.4%

C=C(CCC=C(C)C)C1CC[C@]2(C)C1[C@H](O)CC1[C@@]3(C)CC[C@H](O)C(C)(C)C3CC[C@]12C (stereo partly drawn) [PAM-120, Dammara-20(21)-diene-3,12-diol]
tumor sizes compared with Rh2 treated animals (in words) ([2]; equal dose of Rh2, day 24, p<0.05): significantly smaller
tumor growth compared with PBS control animals (in words) [2]: significantly inhibited tumor growth
Absorbency of Stained Cells (M ± SD) ([1]; high-dose 40 μg/ml): .125 ± .031
Absorbency of Stained Cells (M ± SD) ([1]; low-dose 25 μg/ml): .220 ± .051
viability at 40 µg/mL ([1]; high-dose 40 μg/ml): 35.3%
viability at 25 µg/mL ([1]; low-dose 25 μg/ml): 62.1%
inhibitory effect on proliferation of H460 cells (in words) [1]: significant inhibitory effect
inhibitory effect on proliferation of H460 cells compared with Rh2 (in words) [1]: notable increase in inhibitory effect
mice that survived the whole 120 days, no tumors found postmortally ([3]; 25 mg/kg treatment group, 10 animals): Two
anti-cancer effect on murine sarcoma compared with Rh2 (in words) ([3]; P<0.01 compared with relevant Rh2 treatment dose groups): Better anti-cancer effect
life prolongation of mice bearing murine sarcoma compared with control (in words) ([3]; P<0.01 compared with the average days of survival in the control): significant increase in life prolongation
DS50 (days of survival for 50% animals) ([3]; 10 mg/kg daily): 38 days
LPR(%) life prolongation rate ([3]; 10 mg/kg daily): 162.6%
DS50 (days of survival for 50% animals) ([3]; 25 mg/kg daily): 77 days
LPR(%) life prolongation rate ([3]; 25 mg/kg daily): 448.3%
survival time after tumor implantation (in words) [4]: significantly longer survival time
